Measured values from patent US20030118627A1 (DABUR RESEARCH FOUNDATION, priority 2001, published 2003).

Assays:
Format in all cases: cell-based
MOLT 4 = experiment: MTT cytotoxicity assay, MOLT 4 leukemia; settings: Homo sapiens; for IC50: 24 h, Molt 4 Leukemia, read-out: ED50 values of cytotoxicity; for cytotoxicity at 1000 µM / cytotoxicity at 2500 µM / cytotoxicity at 4000 µM / cytotoxicity at 5000 µM / cytotoxicity at 10000 µM: MOLT 4 Leukemia, read-out: Percent cytotoxicity; for cytotoxicity at 1000 µM: 1.0 mM; for cytotoxicity at 2500 µM: 2.5 mM; for cytotoxicity at 4000 µM: 4 mM; for cytotoxicity at 5000 µM: 5 mM; for cytotoxicity at 10000 µM: 10 mM
Protocol: (§1) Briefly, a […] MTT cytotoxicity assay was performed, which is based on the principle of uptake of MTT (3-(4,5-dimethylthiazol-2-yl)-2,5-diphenyl tetrazolium bromide), a tetrazolium salt, by the metabolically active cells where it is metabolized by active mitochondria into a blue colored formazan product that is read spectrophoto-metrically. MTT was dissolved in phosphate buffered saline with a pH of 7.4 to obtain an MTT concentration of 5 mg/ml; the resulting mixture was filtered through a 0.22 micron filter to sterilize and remove a small amount of insoluble residue. For each type of tumor cell, 20,000 to 50,000 cells were seeded in a 96-well culture plate and incubated with the combination in a CO2 incubator for 24 hours. […] The assay was terminated after 24 hours by adding 100 ug (20 ul) of MTT to each well, then incubating for additional one hour, and finally adding 50 ul of 10% SDS-0.01N HCl to each well to lyse the cells and dissolve formazan. After incubating for one hour, the plate was read spectrophotometrically at 540 nm and the percentage cytotoxicity calculated.

PA 1 = experiment: MTT cytotoxicity assay, PA 1 ovary; settings: Homo sapiens; for IC50: 24 h, PA 1 Ovarian, read-out: ED50 values of cytotoxicity; for cytotoxicity at 1000 µM / cytotoxicity at 2500 µM / cytotoxicity at 4000 µM / cytotoxicity at 5000 µM / cytotoxicity at 10000 µM: PA 1 Ovary, read-out: Percent cytotoxicity; for cytotoxicity at 1000 µM: 1.0 mM; for cytotoxicity at 2500 µM: 2.5 mM; for cytotoxicity at 4000 µM: 4 mM; for cytotoxicity at 5000 µM: 5 mM; for cytotoxicity at 10000 µM: 10 mM
Protocol: as §1

PTC = experiment: MTT cytotoxicity assay, PTC colon; settings: Homo sapiens; for cytotoxicity at 1000 µM: 1.0 mM; for cytotoxicity at 1000 µM / cytotoxicity at 2500 µM / cytotoxicity at 4000 µM / cytotoxicity at 5000 µM / cytotoxicity at 10000 µM: read-out: Percent cytotoxicity; for cytotoxicity at 2500 µM: 2.5 mM; for cytotoxicity at 4000 µM: 4 mM; for cytotoxicity at 5000 µM: 5 mM; for cytotoxicity at 10000 µM: 10 mM; for IC50: 24 h, read-out: ED50 values of cytotoxicity
Protocol: as §1

Miapaca2 = experiment: MTT cytotoxicity assay, Miapaca2 pancreas; settings: Homo sapiens; for cytotoxicity at 1000 µM: MIA PaCa-2, 1.0 mM; for cytotoxicity at 1000 µM / cytotoxicity at 2500 µM / cytotoxicity at 4000 µM / cytotoxicity at 5000 µM / cytotoxicity at 10000 µM: read-out: Percent cytotoxicity; for cytotoxicity at 2500 µM: MIA PaCa-2, 2.5 mM; for cytotoxicity at 4000 µM: MIA PaCa-2, 4 mM; for cytotoxicity at 5000 µM: MIA PaCa-2, 5 mM; for cytotoxicity at 10000 µM: MIA PaCa-2, 10 mM; for IC50: MIA PaCa-2, 24 h, read-out: ED50 values of cytotoxicity
Protocol: as §1

DU145 = experiment: MTT cytotoxicity assay, DU145 prostate; settings: Homo sapiens; for cytotoxicity at 1000 µM: DU-145, 1.0 mM; for cytotoxicity at 1000 µM / cytotoxicity at 2500 µM / cytotoxicity at 4000 µM / cytotoxicity at 5000 µM / cytotoxicity at 10000 µM: read-out: Percent cytotoxicity; for cytotoxicity at 2500 µM: DU-145, 2.5 mM; for cytotoxicity at 4000 µM: DU-145, 4 mM; for cytotoxicity at 5000 µM: DU-145, 5 mM; for cytotoxicity at 10000 µM: DU-145, 10 mM; for IC50: DU-145, 24 h, read-out: ED50 values of cytotoxicity
Protocol: as §1

L132 = experiment: MTT cytotoxicity assay, L132 lung; settings: Homo sapiens; for cytotoxicity at 1000 µM: 1.0 mM; for cytotoxicity at 1000 µM / cytotoxicity at 2500 µM / cytotoxicity at 4000 µM / cytotoxicity at 5000 µM / cytotoxicity at 10000 µM: read-out: Percent cytotoxicity; for cytotoxicity at 2500 µM: 2.5 mM; for cytotoxicity at 4000 µM: 4 mM; for cytotoxicity at 5000 µM: 5 mM; for cytotoxicity at 10000 µM: 10 mM; for IC50: 24 h, read-out: ED50 values of cytotoxicity
Protocol: as §1

MCF7 = experiment: MTT cytotoxicity assay, MCF7 breast; settings: Homo sapiens; for IC50: MCF7, 24 h, MCF 7 Breast, read-out: ED50 values of cytotoxicity; for cytotoxicity at 1000 µM / cytotoxicity at 2500 µM / cytotoxicity at 4000 µM / cytotoxicity at 5000 µM / cytotoxicity at 10000 µM: MCF7 breast, read-out: Percent cytotoxicity; for cytotoxicity at 1000 µM: 1.0 mM; for cytotoxicity at 2500 µM: 2.5 mM; for cytotoxicity at 4000 µM: 4 mM; for cytotoxicity at 5000 µM: 5 mM; for cytotoxicity at 10000 µM: 10 mM
Protocol: as §1

U87MG = experiment: MTT cytotoxicity assay, U87MG glioblastoma; settings: Homo sapiens, U-87 MG, 24 h, read-out: ED50 values of cytotoxicity
Protocol: as §1

KB = experiment: MTT cytotoxicity assay, KB oral; settings: Homo sapiens, 24 h, read-out: ED50 values of cytotoxicity
Protocol: as §1

Hep2 = experiment: MTT cytotoxicity assay, Hep2 larynx; settings: Homo sapiens, HEp-2, 24 h, read-out: ED50 values of cytotoxicity
Protocol: as §1

293 = experiment: MTT cytotoxicity assay, 293 kidney; settings: Homo sapiens, HEK293, 24 h, read-out: ED50 values of cytotoxicity
Protocol: as §1

INT 407 = experiment: MTT cytotoxicity assay, INT 407 intestine; settings: Homo sapiens, 24 h, read-out: ED50 values of cytotoxicity
Protocol: as §1

CC(=O)C(O)N1C(=O)CCC1C(=O)OCc1ccccc1 (stereo not shown) [MGC-3, N-(1-hydroxy-2-ketopropyl)-benzylpyroglutamate]
IC50 (MOLT 4): 1650 ± 500 µM | cytotoxicity at 1000 µM (MOLT 4): 42.1 ± 4.3% | cytotoxicity at 2500 µM (MOLT 4): 54.9 ± 4.3% | cytotoxicity at 4000 µM (MOLT 4): 65.9 ± 4.3% | cytotoxicity at 5000 µM (MOLT 4): 87.9 ± 7.3% | cytotoxicity at 10000 µM (MOLT 4): 88.3 ± 7.4% | IC50 (PA 1): 1800 ± 600 µM | cytotoxicity at 1000 µM (PA 1): 42.8 ± 4.9% | cytotoxicity at 2500 µM (PA 1): 64.8 ± 5.9% | cytotoxicity at 4000 µM (PA 1): 66.9 ± 5.9% | cytotoxicity at 5000 µM (PA 1): 78.9 ± 7.4% | cytotoxicity at 10000 µM (PA 1): 88.5 ± 8.4% | cytotoxicity at 1000 µM (PTC): 0% | cytotoxicity at 2500 µM (PTC): 32.9 ± 3.8% | cytotoxicity at 4000 µM (PTC): 54.9 ± 3.8% | cytotoxicity at 5000 µM (PTC): 56.8 ± 5.7% | cytotoxicity at 10000 µM (PTC): 86.9 ± 7.6% | IC50 (PTC): 3800 ± 700 µM | cytotoxicity at 1000 µM (Miapaca2): 0% | cytotoxicity at 2500 µM (Miapaca2): 0% | cytotoxicity at 4000 µM (Miapaca2): 0% | cytotoxicity at 5000 µM (Miapaca2): 12.9 ± 1% | cytotoxicity at 10000 µM (Miapaca2): 14.1 ± 1.9% | IC50 (Miapaca2): > 5000 µM | cytotoxicity at 1000 µM (DU145): 29.4 ± 4.2% | cytotoxicity at 2500 µM (DU145): 56.9 ± 4.3% | cytotoxicity at 4000 µM (DU145): 64.8 ± 6.3% | cytotoxicity at 5000 µM (DU145): 87.9 ± 8.3% | cytotoxicity at 10000 µM (DU145): 88.4 ± 4% | IC50 (DU145): 1800 ± 200 µM | cytotoxicity at 1000 µM (L132): 0% | cytotoxicity at 2500 µM (L132): 30 ± 2.9% | cytotoxicity at 4000 µM (L132): 45.8 ± 4.5% | cytotoxicity at 5000 µM (L132): 52.9 ± 5.2% | cytotoxicity at 10000 µM (L132): 79.4 ± 5.9% | IC50 (L132): 4600 ± 1600 µM | IC50 (MCF7): > 5000 µM | cytotoxicity at 1000 µM (MCF7): 0% | cytotoxicity at 2500 µM (MCF7): 0% | cytotoxicity at 4000 µM (MCF7): 0% | cytotoxicity at 5000 µM (MCF7): 2.7 ± 0.1% | cytotoxicity at 10000 µM (MCF7): 12.4 ± 1% | IC50 (U87MG): > 5000 µM | IC50 (KB): 2550 ± 400 µM | IC50 (Hep2): 2600 µM | IC50 293: 2000 ± 300 µM | IC50 (INT 407): 2850 ± 700 µM

CCCCOC(=O)C1CCC(=O)N1C(OC(C)=O)C(C)=O (stereo not shown) [MGC-5, N-(1-acetoxy-2-ketopropyl)-butylpyroglutamate]
IC50 (MOLT 4): 1500 ± 100 µM | cytotoxicity at 1000 µM (MOLT 4): 25.9 ± 2.9% | cytotoxicity at 2500 µM (MOLT 4): 61 ± 4.8% | cytotoxicity at 4000 µM (MOLT 4): 76 ± 7.1% | cytotoxicity at 5000 µM (MOLT 4): 82.9 ± 6.9% | cytotoxicity at 10000 µM (MOLT 4): 87.9 ± 6.9% | IC50 (PA 1): 1600 ± 100 µM | cytotoxicity at 1000 µM (PA 1): 31.8 ± 3.1% | cytotoxicity at 2500 µM (PA 1): 58.8 ± 5.3% | cytotoxicity at 4000 µM (PA 1): 83.9 ± 7.8% | cytotoxicity at 5000 µM (PA 1): 85.9 ± 6.2% | cytotoxicity at 10000 µM (PA 1): 86.9 ± 8.4% | cytotoxicity at 1000 µM (PTC): 2.9 ± 0.3% | cytotoxicity at 2500 µM (PTC): 37.9 ± 3.9% | cytotoxicity at 4000 µM (PTC): 53.9 ± 5.4% | cytotoxicity at 5000 µM (PTC): 85.9 ± 8.9% | cytotoxicity at 10000 µM (PTC): 89.2 ± 7.4% | IC50 (PTC): 3800 ± 900 µM | cytotoxicity at 1000 µM (Miapaca2): 0% | cytotoxicity at 2500 µM (Miapaca2): 24.8 ± 2.6% | cytotoxicity at 4000 µM (Miapaca2): 43.8 ± 3.9% | cytotoxicity at 5000 µM (Miapaca2): 54.9 ± 4.2% | cytotoxicity at 10000 µM (Miapaca2): 67.9 ± 4% | IC50 (Miapaca2): 4300 ± 1600 µM | cytotoxicity at 1000 µM (DU145): 27.9 ± 0.4% | cytotoxicity at 2500 µM (DU145): 58.4 ± 5.9% | cytotoxicity at 4000 µM (DU145): 59 ± 4.3% | cytotoxicity at 5000 µM (DU145): 68.3 ± 4.6% | cytotoxicity at 10000 µM (DU145): 80 ± 7% | IC50 (DU145): 1900 ± 700 µM | cytotoxicity at 1000 µM (L132): 2.9 ± 0.1% | cytotoxicity at 2500 µM (L132): 36.9 ± 4.9% | cytotoxicity at 4000 µM (L132): 57.8 ± 4% | cytotoxicity at 5000 µM (L132): 59 ± 6% | cytotoxicity at 10000 µM (L132): 76.3 ± 5.4% | IC50 (L132): 3600 ± 1100 µM | IC50 (MCF7): 5000 ± 2100 µM | cytotoxicity at 1000 µM (MCF7): 0% | cytotoxicity at 2500 µM (MCF7): 0% | cytotoxicity at 4000 µM (MCF7): 34.9 ± 3.9% | cytotoxicity at 5000 µM (MCF7): 51.9 ± 3.8% | cytotoxicity at 10000 µM (MCF7): 58.7 ± 5% | IC50 (U87MG): 3400 ± 1100 µM | IC50 (KB): 2000 ± 700 µM | IC50 (Hep2): 1900 µM | IC50 293: 1900 ± 700 µM | IC50 (INT 407): 2600 ± 1100 µM
